Experiments:
[1] = target: Muscarinic acetylcholine receptor (Rattus norvegicus) (UniProt P08482+P08483+P08485+P08911+P10980); assay: Displacement of [3H]QNB from non-selective muscarinic receptor in rat cerebral cortex at 10 uM measured after 120 mins by scintillation counting method
[2] = target: Metabotropic glutamate receptor 2 (Homo sapiens, UniProt Q14416); assay: Positive allosteric modulation of recombinant human mGlu2 receptor expressed in hamster AV12 cells expressing EAAT1 assessed as potentiation of glutamate-induced intracellular calcium level measured after 24 to 48 hrs by FLIPR assay relative to glutamate; assay type: functional, cell-based
hERG (KCNH2) = hERG (KCNH2) (Homo sapiens, UniProt Q12809); assay: Displacement of [3H]dofetilide from recombinant human ERG expressed in HEK293 cells measured after 60 mins by scintillation counting method; assay type: cell-based; details: HEK293 cells expressing recombinant human ERG, probe [3H]dofetilide
[3] = target: Metabotropic glutamate receptor 3 (Homo sapiens, UniProt Q14832); assay: Agonist activity at recombinant human mGlu3 expressed in hamster AV12 cells expressing EAAT1 assessed as increase in intracellular calcium level measured after 24 hrs by FLIPR assay; assay type: functional, cell-based
[4] = Half life in rat at 1 mg/kg, po; assay type: ADME, organism-based; details: in vivo
[5] = target: Metabotropic glutamate receptor 4 (Homo sapiens) (UniProt Q14833); assay: Positive allosteric modulation of recombinant human mGlu4 receptor expressed in hamster AV12 cells expressing EAAT1 assessed as potentiation of glutamate-induced intracellular Ca2+ level at 20 uM after 24 hrs by FLIPR assay; assay type: functional, cell-based
[6] = target: 5-hydroxytryptamine receptor 1A (Homo sapiens, UniProt P08908); assay: Activity at human 5HT1A receptor
[7] = Cmax in rat at 1 mg/kg, iv; assay type: ADME, organism-based; set-up: dose 1 mg/kg, route intravenous; details: in vivo
Rattus norvegicus [8] = organism: Rattus norvegicus; assay: Displacement of [3H]D888 from L-type calcium channel verapamil binding site in rat cerebral cortex at 10 uM measured after 120 mins by scintillation counting method
[9] = Half life in rat at 1 mg/kg, iv; assay type: ADME, organism-based; details: in vivo
[10] = Oral bioavailability in dog at 1 mg/kg; assay type: ADME, organism-based, Canis lupus familiaris; details: in vivo
[11] = target: Beta-1 adrenergic receptor (Homo sapiens) (UniProt P08588); assay: Displacement of [3H](-)CGP12177 from recombinant human beta1 adrenergic receptor expressed in HEK293 cells at 10 uM measured after 60 mins by scintillation counting method; assay type: cell-based
[12] = target: 5-hydroxytryptamine receptor 5A (Homo sapiens, UniProt P47898); assay: Displacement of human 5HT5A receptor expressed in HEK293 cells after 120 mins by scintillation counting method; assay type: cell-based
[13] = target: 5-hydroxytryptamine receptor 2B (Homo sapiens, UniProt P41595); assay: Activity at human 5T2B receptor
[14] = target: Metabotropic glutamate receptor 8 (Homo sapiens) (UniProt O00222); assay: Agonist activity at recombinant human mGlu8 expressed in hamster AV12 cells expressing EAAT1 assessed as increase in intracellular Ca2+ level at 30 uM after 24 hrs by FLIPR assay; assay type: functional, cell-based
[15] = target: 5-hydroxytryptamine receptor 7 (Homo sapiens, UniProt P34969); assay: Displacement of [3H]LSD from human 5HT7 receptor expressed in CHO cells after 120 mins by scintillation counting method; assay type: cell-based
[16] = target: 5-hydroxytryptamine receptor 1E (Homo sapiens, UniProt P28566); assay: Activity at human 5HT1E receptor
[17] = target: T1, Metabotropic glutamate receptor 1 (Homo sapiens, UniProt Q13255); assay: Agonist activity at recombinant human mGlu1 expressed in hamster AV12 cells expressing EAAT1 assessed as increase in intracellular calcium level measured after 24 hrs by FLIPR assay; assay type: functional, cell-based
[18] = target: 5-hydroxytryptamine receptor 2A (Homo sapiens, UniProt P28223); assay: Activity at human 5HT2A receptor
[19] = target: Histamine H1 receptor (Homo sapiens) (UniProt P35367); assay: Displacement of [3H]pyrilamine from recombinant human histamine H1 receptor expressed in HEK293 cells at 10 uM measured after 60 mins by scintillation counting method; assay type: cell-based
[20] = Tmax in rat at 1 mg/kg, po; assay type: ADME, organism-based; details: in vivo
[21] = target: Adrenergic receptor alpha-1 (Rattus norvegicus) (UniProt P15823+P23944+P43140); assay: Displacement of [3H]prazosin from non-selective alpha1 adrenergic receptor in rat brain cortex at 10 uM measured after 60 mins by scintillation counting method; assay type: tissue-based
[22] = Half life in dog at 1 mg/kg, po; assay type: ADME, organism-based, Canis lupus familiaris; details: in vivo
[23] = Cmax in dog at 1 mg/kg, po; assay type: ADME, organism-based, Canis lupus familiaris; set-up: dose 1 mg/kg, route oral; details: in vivo
[24] = Half life in dog at 0.5 mg/kg, iv; assay type: ADME, organism-based, Canis lupus familiaris; details: in vivo
[25] = target: T1, Metabotropic glutamate receptor 1; assay: Positive allosteric modulation of recombinant human mGlu1 expressed in hamster AV12 cells expressing EAAT1 assessed as potentiation of glutamate-induced intracellular Ca2+ level measured after 24 hrs by FLIPR assay; assay type: functional, cell-based
[26] = Clearance in dog at 0.5 mg/kg, iv; assay type: ADME, organism-based, Canis lupus familiaris; details: in vivo
[27] = target: 5-hydroxytryptamine receptor 6 (Homo sapiens, UniProt P50406); assay: Displacement of [3H]LSD from human 5HT6 receptor expressed in CHO cells after 120 mins by scintillation counting method; assay type: cell-based
[28] = target: 5-hydroxytryptamine receptor 1F (Homo sapiens, UniProt P30939); assay: Activity at human 5HT1F receptor
[29] = target: T1, Metabotropic glutamate receptor 1; assay: Antagonist activity at recombinant human mGlu1 receptor expressed in hamster AV12 cells expressing EAAT1 assessed as inhibition of glutamate-induced intracellular Ca2+ level measured after 24 hrs by FLIPR assay; assay type: functional, cell-based
Rattus norvegicus [30] = organism: Rattus norvegicus; assay: Displacement of [3H]naloxone from opioid receptor in rat cerebral cortex at 10 uM measured after 40 mins by scintillation counting method
[31] = target: Metabotropic glutamate receptor 8 (Homo sapiens) (UniProt O00222); assay: Positive allosteric modulation of recombinant human mGlu8 expressed in hamster AV12 cells expressing EAAT1 assessed as potentiation of glutamate-induced intracellular Ca2+ level at 20 uM after 24 hrs by FLIPR assay; assay type: functional, cell-based
[32] = target: T2, Cysteinyl leukotriene receptor 1 (Homo sapiens, UniProt Q9Y271); assay: Antagonist activity at human CysLT1 receptor expressed in Syrian hamster AV12-664 cells assessed as decrease in LTD4-induced intracellular calcium level pretreated followed by LTD4 addition by fluo-3 dye based FLIPR assay; assay type: functional, cell-based
T2 sequence (Q9Y271 whole entry): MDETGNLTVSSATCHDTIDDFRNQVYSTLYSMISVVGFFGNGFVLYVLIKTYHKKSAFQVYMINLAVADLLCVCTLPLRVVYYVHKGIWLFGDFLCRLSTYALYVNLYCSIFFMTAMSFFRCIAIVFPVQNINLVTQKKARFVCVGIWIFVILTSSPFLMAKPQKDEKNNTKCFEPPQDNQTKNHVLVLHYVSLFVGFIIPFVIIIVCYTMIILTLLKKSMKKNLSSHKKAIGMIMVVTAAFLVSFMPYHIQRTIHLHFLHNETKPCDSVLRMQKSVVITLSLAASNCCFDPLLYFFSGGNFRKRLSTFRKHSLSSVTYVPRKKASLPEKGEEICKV

[33] = target: Metabotropic glutamate receptor 5 (Homo sapiens, UniProt P41594); assay: Positive allosteric modulation of recombinant human mGlu5 expressed in hamster AV12 cells expressing EAAT1 assessed as potentiation of glutamate-induced intracellular Ca2+ level measured after 24 hrs by FLIPR assay; assay type: functional, cell-based
Metabotropic glutamate receptor 5, sequence (P41594 whole entry): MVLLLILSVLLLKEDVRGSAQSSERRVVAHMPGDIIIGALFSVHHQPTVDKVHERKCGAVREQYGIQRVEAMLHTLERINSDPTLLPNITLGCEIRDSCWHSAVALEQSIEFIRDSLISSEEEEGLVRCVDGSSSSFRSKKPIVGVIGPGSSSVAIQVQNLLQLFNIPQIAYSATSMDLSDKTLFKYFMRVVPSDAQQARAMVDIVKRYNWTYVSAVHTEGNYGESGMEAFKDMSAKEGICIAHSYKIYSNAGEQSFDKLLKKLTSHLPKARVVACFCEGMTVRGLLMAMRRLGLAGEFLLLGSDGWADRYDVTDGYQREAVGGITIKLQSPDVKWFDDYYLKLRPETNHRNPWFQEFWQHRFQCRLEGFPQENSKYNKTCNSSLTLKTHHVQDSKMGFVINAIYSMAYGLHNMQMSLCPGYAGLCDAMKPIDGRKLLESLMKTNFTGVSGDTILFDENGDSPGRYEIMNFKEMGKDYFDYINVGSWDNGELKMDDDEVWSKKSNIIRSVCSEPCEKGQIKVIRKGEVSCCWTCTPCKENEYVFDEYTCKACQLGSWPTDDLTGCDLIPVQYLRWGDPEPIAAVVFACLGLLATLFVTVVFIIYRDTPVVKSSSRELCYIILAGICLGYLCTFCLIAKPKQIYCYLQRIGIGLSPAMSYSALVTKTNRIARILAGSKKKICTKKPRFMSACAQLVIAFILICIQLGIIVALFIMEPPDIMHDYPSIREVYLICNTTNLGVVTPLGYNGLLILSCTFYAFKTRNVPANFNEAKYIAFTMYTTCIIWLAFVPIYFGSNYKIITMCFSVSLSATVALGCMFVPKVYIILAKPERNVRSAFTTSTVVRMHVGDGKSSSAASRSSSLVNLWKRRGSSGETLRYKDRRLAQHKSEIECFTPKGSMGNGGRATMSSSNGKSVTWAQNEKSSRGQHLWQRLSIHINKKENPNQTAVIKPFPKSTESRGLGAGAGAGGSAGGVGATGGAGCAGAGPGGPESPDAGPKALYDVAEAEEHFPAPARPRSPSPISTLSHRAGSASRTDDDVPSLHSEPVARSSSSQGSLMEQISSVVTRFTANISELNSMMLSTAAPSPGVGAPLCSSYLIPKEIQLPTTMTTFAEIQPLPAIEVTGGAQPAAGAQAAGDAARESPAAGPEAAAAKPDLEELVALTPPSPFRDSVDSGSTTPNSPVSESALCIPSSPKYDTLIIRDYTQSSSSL

T1 sequence (Q13255 whole entry): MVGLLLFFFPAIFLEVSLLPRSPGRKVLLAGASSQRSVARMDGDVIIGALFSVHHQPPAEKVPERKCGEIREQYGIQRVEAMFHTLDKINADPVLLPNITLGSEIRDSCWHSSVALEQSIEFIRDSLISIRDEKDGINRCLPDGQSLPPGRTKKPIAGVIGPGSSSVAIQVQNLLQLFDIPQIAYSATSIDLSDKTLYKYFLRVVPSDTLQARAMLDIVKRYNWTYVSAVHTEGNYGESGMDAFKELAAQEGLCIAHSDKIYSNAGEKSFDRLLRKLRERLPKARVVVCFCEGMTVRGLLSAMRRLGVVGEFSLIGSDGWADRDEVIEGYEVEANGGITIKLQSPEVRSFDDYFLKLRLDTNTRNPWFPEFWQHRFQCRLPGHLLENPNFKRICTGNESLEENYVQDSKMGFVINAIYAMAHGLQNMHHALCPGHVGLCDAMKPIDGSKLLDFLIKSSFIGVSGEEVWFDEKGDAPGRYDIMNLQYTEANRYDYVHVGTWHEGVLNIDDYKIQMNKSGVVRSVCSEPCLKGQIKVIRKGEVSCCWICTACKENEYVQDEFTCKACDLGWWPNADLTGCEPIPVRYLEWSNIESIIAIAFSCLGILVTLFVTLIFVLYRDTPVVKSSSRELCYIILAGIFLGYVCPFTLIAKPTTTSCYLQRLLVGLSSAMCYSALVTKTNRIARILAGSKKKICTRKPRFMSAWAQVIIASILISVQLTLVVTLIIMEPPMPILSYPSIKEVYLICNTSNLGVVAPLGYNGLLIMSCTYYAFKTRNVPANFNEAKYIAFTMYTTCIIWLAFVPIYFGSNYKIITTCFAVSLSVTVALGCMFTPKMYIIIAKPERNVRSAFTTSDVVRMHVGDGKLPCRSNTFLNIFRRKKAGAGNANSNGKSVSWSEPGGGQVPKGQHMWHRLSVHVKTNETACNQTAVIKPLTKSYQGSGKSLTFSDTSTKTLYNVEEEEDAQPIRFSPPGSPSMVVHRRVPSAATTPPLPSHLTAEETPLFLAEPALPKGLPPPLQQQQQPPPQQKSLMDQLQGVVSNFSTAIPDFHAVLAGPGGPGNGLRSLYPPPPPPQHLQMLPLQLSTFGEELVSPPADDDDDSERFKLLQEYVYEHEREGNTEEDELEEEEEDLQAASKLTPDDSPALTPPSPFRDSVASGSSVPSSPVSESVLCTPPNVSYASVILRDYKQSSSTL
Metabotropic glutamate receptor 8 (Homo sapiens), sequence (O00222 whole entry): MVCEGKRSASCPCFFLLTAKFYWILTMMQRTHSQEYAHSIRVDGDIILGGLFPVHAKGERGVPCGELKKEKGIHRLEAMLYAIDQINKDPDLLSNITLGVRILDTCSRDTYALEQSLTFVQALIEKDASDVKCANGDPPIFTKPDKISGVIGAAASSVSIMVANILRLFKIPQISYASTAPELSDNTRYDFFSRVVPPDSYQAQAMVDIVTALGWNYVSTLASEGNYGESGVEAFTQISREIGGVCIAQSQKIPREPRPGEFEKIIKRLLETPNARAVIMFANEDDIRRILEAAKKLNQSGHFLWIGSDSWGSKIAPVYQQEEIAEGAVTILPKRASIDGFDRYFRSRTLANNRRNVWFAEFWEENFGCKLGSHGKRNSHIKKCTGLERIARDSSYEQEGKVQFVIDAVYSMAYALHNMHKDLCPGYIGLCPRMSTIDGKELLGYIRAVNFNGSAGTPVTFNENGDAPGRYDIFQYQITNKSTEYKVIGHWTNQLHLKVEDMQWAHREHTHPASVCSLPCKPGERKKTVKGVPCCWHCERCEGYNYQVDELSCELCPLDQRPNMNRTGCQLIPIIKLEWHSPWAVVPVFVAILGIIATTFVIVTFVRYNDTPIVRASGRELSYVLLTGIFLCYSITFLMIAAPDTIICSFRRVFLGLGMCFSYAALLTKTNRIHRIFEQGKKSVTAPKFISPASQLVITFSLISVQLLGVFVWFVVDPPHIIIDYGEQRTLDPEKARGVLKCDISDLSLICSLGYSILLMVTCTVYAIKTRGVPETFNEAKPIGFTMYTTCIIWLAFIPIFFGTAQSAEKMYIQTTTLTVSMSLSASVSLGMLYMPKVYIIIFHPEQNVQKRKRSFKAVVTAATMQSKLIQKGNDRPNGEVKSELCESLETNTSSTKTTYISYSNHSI
5-hydroxytryptamine receptor 1F, sequence (P30939 whole entry): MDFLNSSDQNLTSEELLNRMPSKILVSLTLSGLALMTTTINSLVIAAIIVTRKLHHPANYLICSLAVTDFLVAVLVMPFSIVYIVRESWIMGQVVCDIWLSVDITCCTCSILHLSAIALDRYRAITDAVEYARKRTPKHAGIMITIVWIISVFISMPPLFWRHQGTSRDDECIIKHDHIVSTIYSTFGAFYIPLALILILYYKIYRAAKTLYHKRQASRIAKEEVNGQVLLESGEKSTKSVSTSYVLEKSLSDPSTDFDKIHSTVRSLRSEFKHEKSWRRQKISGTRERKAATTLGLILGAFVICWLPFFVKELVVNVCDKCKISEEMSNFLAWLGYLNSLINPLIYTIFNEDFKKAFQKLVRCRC
Beta-1 adrenergic receptor (Homo sapiens), sequence (P08588 whole entry, looked up): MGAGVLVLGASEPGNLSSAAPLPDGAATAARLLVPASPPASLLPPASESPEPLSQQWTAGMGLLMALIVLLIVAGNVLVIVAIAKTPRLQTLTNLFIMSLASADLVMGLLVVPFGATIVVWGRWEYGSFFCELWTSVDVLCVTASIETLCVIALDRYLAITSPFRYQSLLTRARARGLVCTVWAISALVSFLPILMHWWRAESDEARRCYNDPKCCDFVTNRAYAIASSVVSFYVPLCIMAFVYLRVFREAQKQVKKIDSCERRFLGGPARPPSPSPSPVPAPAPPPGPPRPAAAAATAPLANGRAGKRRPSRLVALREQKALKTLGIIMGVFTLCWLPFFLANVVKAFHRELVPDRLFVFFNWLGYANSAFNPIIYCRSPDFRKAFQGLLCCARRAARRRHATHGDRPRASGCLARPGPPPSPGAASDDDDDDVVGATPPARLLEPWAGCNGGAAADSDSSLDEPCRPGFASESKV
5-hydroxytryptamine receptor 1A, sequence (P08908 whole entry): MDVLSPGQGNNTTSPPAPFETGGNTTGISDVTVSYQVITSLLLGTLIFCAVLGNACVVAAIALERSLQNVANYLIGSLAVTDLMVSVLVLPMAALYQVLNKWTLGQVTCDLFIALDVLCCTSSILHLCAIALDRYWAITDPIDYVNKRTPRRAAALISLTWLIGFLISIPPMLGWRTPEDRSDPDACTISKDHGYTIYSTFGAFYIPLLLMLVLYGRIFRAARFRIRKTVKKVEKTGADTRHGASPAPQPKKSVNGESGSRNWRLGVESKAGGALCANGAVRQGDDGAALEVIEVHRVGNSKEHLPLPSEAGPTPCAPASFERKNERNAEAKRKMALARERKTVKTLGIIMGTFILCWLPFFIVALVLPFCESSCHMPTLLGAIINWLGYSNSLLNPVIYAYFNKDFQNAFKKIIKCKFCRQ
5-hydroxytryptamine receptor 2A, sequence (P28223 whole entry): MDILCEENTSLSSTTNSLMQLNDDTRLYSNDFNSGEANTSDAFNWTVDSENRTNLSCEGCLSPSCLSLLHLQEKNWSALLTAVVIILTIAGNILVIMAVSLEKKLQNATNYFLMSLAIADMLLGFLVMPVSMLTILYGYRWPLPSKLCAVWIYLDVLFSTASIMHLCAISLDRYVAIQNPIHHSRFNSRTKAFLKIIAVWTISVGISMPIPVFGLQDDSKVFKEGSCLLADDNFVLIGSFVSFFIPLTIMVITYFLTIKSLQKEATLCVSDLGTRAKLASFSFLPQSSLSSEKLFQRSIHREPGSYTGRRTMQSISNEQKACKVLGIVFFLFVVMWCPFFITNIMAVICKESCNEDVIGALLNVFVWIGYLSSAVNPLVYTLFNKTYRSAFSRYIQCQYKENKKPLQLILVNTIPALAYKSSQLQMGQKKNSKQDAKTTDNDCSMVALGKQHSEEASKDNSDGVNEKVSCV

- inhibition [1]: 22.9%
- Emax [2]: 107%
- EC50 [3]: > 25 µM
- half-life [4]: 8 h
- Activity [5]: < 40%
- Ki [6]: > 3.02 µM
- Cmax [7]: 2160 ng/mL
- inhibition (Rattus norvegicus [8]): 63.1%
- half-life [9]: 2 h
- bioavailability [10]: 32%
- inhibition [11]: 5.1%
- Ki [12]: > 6.9 µM
- Ki [13]: > 3.3 µM
- Activity [14]: < 20%
- Ki [15]: > 3.98 µM
- Ki [16]: > 5.37 µM
- EC50 [17]: > 25 µM
- Ki [18]: > 7.47 µM
- inhibition [19]: 0.7%
- Tmax [20]: 2.5 h
- inhibition [21]: 5.3%
- half-life [22]: 1 h
- Cmax [23]: 143 ng/mL
- half-life [24]: 2 h
- EC50 [25]: > 12.5 µM
- clearance [26]: 12 mL/min/kg
- Ki [27]: > 1.79 µM
- Ki [28]: > 2.97 µM
- IC50 [29]: > 8 µM
- inhibition (Rattus norvegicus [30]): 15.1%
- Activity [31]: < 20%
- IC50 [32]: 0.0241 µM
- EC50 [33]: > 12.5 µM
Compound: CC(=O)c1ccc(OCc2ccc(Oc3cc(-c4nn[nH]n4)ccn3)cc2)c(C)c1O
- inhibition at 1 h (hERG (KCNH2)): < 15%
